Read-outs that look alike come from different tables or passages of the source. Each block holds one compound with its values, some of them ahead of it. Where a SMILES comes first, the peptide text is derived from it. Bridges are numbered along the chain shown (N, C = ends). Roman numbers before positions name the chains, in order. Where no end group is shown, it is not given here. [ ]: non-standard residue; d: D form. AEEA = NCCOCCOCC(=O)O
What was measured:
[1] = biological target: CD40L-induced CD86 expression on primary B-cells (Homo sapiens, UniProt P29965); assay: Inhibition of CD40L-induced CD86 expression on primary B-cells (FACS); format: cell-based; conditions: for inhibition of CD40L-induced CD86 expression (qualitative): figure legends; for EC50: PEGylated monomeric peptide, read-out: EC50 PEGylated peptide
Chain of CD40L-induced CD86 expression on primary B-cells (P29965 whole entry): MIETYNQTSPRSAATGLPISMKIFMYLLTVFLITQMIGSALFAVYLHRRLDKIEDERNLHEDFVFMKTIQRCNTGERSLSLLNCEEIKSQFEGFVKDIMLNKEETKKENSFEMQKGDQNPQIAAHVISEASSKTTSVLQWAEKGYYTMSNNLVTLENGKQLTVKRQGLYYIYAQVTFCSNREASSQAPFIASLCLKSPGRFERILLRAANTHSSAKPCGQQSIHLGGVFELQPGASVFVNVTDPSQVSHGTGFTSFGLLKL
Chain of CD40L-induced CD86 expression on primary B-cells (P25942 21-277 partner): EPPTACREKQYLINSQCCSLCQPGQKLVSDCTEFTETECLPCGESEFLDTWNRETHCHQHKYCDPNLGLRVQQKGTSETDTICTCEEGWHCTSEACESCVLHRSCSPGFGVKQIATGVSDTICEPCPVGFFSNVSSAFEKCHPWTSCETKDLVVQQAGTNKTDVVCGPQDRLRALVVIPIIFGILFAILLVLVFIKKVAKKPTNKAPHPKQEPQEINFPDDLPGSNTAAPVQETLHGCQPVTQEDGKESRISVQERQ
Method: In one example, the ability of a peptide, analog or derivative of the invention to inhibit or reduce or delay expression of CD86 on primary B-cells was determined in the presence and absence of the peptides, analogs and derivatives of the invention. In particular, CD86 expression was determined by FACS.
In these assays, CD40L induced CD86 expression in a concentration-dependent manner in the absence of a peptidyl inhibitor of the present invention with an EC50 value of about 9 nM (FIG. 6d, 6e). As a control in these assays, LPS-induced expression of CD86 mediated by the Toll-like receptors TLR 2/4, and TNFα-induced cytoxicity, were also assayed to exclude effects mediated by ligands other than CD40L.
In a similar series of bioassays, dimeric forms of the CD40L peptide inhibitors were also tested for their ability to inhibit or reduce CD40L-induced expression of CD86 on primary B-cells.

[2] = biological target: T1, CD40L/CD40-Fc (Homo sapiens, UniProt P29965); assay: Chemiluminescent proximity assay (Alphascreen) of CD40L-CD40 interaction; format: binding
T1 sequence (P29965 113-261 limits assumed): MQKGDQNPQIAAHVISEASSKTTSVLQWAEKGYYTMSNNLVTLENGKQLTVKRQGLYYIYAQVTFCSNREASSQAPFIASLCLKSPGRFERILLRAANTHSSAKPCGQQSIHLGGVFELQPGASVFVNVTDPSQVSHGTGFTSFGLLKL
Method: In one example, the Alphascreen assay (PerkinElmer) was employed according to the manufacturer's instructions.
Homodimers and heterodimers were also assayed by chemiluminescent proximity assay for their ability to inhibit CD40L-CD40 interaction.

Compound: CC[C@H](C)[C@H](NC(=O)[C@H](CO)NC(=O)[C@H](Cc1c[nH]c2ccccc12)NC(=O)[C@H](CCC(N)=O)NC(=O)[C@@H](NC(=O)[C@@H]1CCCN1C(=O)[C@H](Cc1ccccc1)NC(=O)[C@H](Cc1ccccc1)NC(=O)[C@H](Cc1c[nH]c2ccccc12)NC(=O)CNC(=O)[C@H](Cc1ccc(O)cc1)NC(=O)[C@H](CCCCN)NC(=O)[C@H](CC(C)C)NC(=O)[C@@H](NC(=O)[C@H](Cc1c[nH]cn1)NC(=O)[C@H](CO)NC(=O)[C@H](CCCNC(=N)N)NC(=O)[C@H](Cc1ccc(O)cc1)NC(=O)[C@@H]1CCCN1C(=O)[C@@H](NC(=O)[C@H](Cc1ccccc1)NC(=O)[C@@H]1CCCN1C(=O)[C@@H](N)CC(C)C)C(C)C)C(C)C)C(C)C)C(=O)N[C@@H](Cc1ccccc1)C(=O)N[C@@H](C)C(=O)N[C@H](C(=O)N[C@@H](CC(C)C)C(=O)N1CCC[C@H]1C(=O)N[C@@H](Cc1ccccc1)C(=O)N[C@@H](CCC(N)=O)C(=O)N[C@@H](Cc1ccc(O)cc1)C(=O)N[C@@H](CC(C)C)C(=O)N[C@@H](Cc1c[nH]cn1)C(=O)N[C@@H](CCCNC(=N)N)C(=O)N[C@@H](CS)C(=O)N[C@@H](CCCNC(=N)N)C(=O)O)C(C)C [CD40L M1_18] (H-LPFVPYRSHVLKYGWFFPVQWSIFAVLPFQYLHRCR-OH; N-terminus and C-terminus assumed)
- inhibition of CD40L-induced CD86 expression (qualitative) [1]: concentration-dependent inhibition
- IC50 ([1]; monomeric peptide, concentration-dependent): < 500 nM

Compound: CC[C@H](C)[C@H](NC(=O)[C@H](CCC(N)=O)NC(=O)[C@H](Cc1ccccc1)NC(=O)[C@H](Cc1ccccc1)NC(=O)[C@H](CCC(=O)O)NC(=O)[C@H](CCCNC(=N)N)NC(=O)CNC(=O)[C@H](C)NC(=O)[C@H](C)NC(=O)[C@@H](N)CC(=O)O)C(=O)N[C@@H](C)C(=O)NCC(=O)N[C@@H](CC(C)C)C(=O)N[C@@H](Cc1ccccc1)C(=O)N[C@@H](CO)C(=O)N[C@@H](Cc1ccccc1)C(=O)N[C@@H](CCCNC(=N)N)C(=O)N[C@@H](Cc1c[nH]cn1)C(=O)N[C@@H](Cc1c[nH]cn1)C(=O)N[C@@H](Cc1c[nH]c2ccccc12)C(=O)N[C@@H](Cc1c[nH]c2ccccc12)C(=O)N[C@@H](CCC(N)=O)C(=O)N[C@@H](C)C(=O)O [CD40L M1_30s] (H-DAAGREFFQIAGLFSFRHHWWQA-OH; N-terminus and C-terminus assumed)
- EC50 [1]: > 2000 nM

Compound: CC[C@H](C)[C@H](NC(=O)CNC(=O)CNC(=O)[C@H](CCCNC(=N)N)NC(=O)[C@H](CCC(N)=O)NC(=O)[C@@H](NC(=O)CNC(=O)[C@H](CO)NC(=O)[C@@H]1CCCN1C(=O)[C@@H](NC(=O)[C@H](Cc1ccccc1)NC(=O)[C@H](CC(C)C)NC(=O)[C@H](CO)NC(=O)[C@H](Cc1ccc(O)cc1)NC(=O)[C@H](Cc1ccccc1)NC(=O)[C@H](CCCNC(=N)N)NC(=O)[C@H](CC(N)=O)NC(=O)[C@H](CCCNC(=N)N)NC(=O)[C@@H](NC(=O)[C@H](Cc1c[nH]c2ccccc12)NC(=O)[C@H](CCCNC(=N)N)NC(=O)[C@@H]1CCCN1)C(C)C)C(C)C)C(C)C)C(=O)N[C@@H](Cc1c[nH]cn1)C(=O)N[C@@H](CC(C)C)C(=O)N[C@@H](Cc1c[nH]c2ccccc12)C(=O)N[C@@H](Cc1ccccc1)C(=O)N[C@@H](CO)C(=O)N[C@@H](CC(N)=O)C(=O)N[C@@H](Cc1c[nH]c2ccccc12)C(=O)N[C@H](C(=O)N[C@@H](CCCNC(=N)N)C(=O)O)C(C)C [CD40L M1_50s] (H-PRWVRNRFYSLFVPSGVQRGGIHLWFSNWVR-OH; N-terminus and C-terminus assumed)
- EC50 [1]: 30 nM

Continued, values first:

- inhibition of CD40L-induced CD86 expression (qualitative) [1]: enhanced inhibition
Compound: CC[C@@H](C)[C@@H](NC(=O)[C@@H](Cc1ccccc1)NC(=O)[C@@H](C)NC(=O)[C@H](NC(=O)[C@@H](CC(C)C)NC(=O)[C@H]1CCCN1C(=O)[C@@H](Cc1ccccc1)NC(=O)[C@@H](CCC(N)=O)NC(=O)[C@@H](Cc1ccc(O)cc1)NC(=O)[C@@H](CC(C)C)NC(=O)[C@@H](Cc1c[nH]cn1)NC(=O)[C@@H](CCCNC(=N)N)NC(=O)[C@@H](CS)NC(=O)[C@H](N)CCCNC(=N)N)C(C)C)C(=O)N[C@H](CO)C(=O)N[C@H](Cc1c[nH]c2ccccc12)C(=O)N[C@H](CCC(N)=O)C(=O)N[C@@H](C(=O)N1CCC[C@@H]1C(=O)N[C@H](Cc1ccccc1)C(=O)N[C@H](Cc1ccccc1)C(=O)N[C@H](Cc1c[nH]c2ccccc12)C(=O)NCC(=O)N[C@H](Cc1ccc(O)cc1)C(=O)N[C@H](CCCCN)C(=O)N[C@H](CC(C)C)C(=O)N[C@@H](C(=O)N[C@H](Cc1c[nH]cn1)C(=O)N[C@H](CO)C(=O)N[C@H](CCCNC(=N)N)C(=O)N[C@H](Cc1ccc(O)cc1)C(=O)N1CCC[C@@H]1C(=O)N[C@@H](C(=O)N[C@H](Cc1ccccc1)C(=O)N1CCC[C@@H]1C(=O)N[C@H](CC(C)C)C(=O)O)C(C)C)C(C)C)C(C)C [CD40L M1_18rd] (H-[dR][dC][dR][dH][dL][dY][dQ][dF][dP][dL][dV][dA][dF][dI][dS][dW][dQ][dV][dP][dF][dF][dW]G[dY][dK][dL][dV][dH][dS][dR][dY][dP][dV][dF][dP][dL]-OH; N-terminus and C-terminus assumed)

- inhibition of CD40L-induced CD86 expression (qualitative) [1]: enhanced inhibition
- inhibition of CD40L-CD40 interaction relative to monomeric peptide controls ([2]; qualitative): enhanced inhibition
Compound: I: H-C[AEEA]LLLFFFSPPFSIFSFSLTTLS / II: H-C[AEEA]HPFSIKNVFSIWNFFSVY (disulfide I:1-II:1) [Cys_M1_6S-Cys_M1_189S heterodimer]

- EC50 ([2]; PEGylated Cys-Ser derivative, read-out: EC50(PEGylated) CD40L/CD40-Fc/BAF617): 120 nM
Compound: CC[C@H](C)[C@H](NC(=O)[C@H](CC(C)C)NC(=O)[C@H](CCC(N)=O)NC(=O)[C@H](Cc1ccccc1)NC(=O)[C@H](Cc1ccc(O)cc1)NC(=O)[C@H](Cc1ccc(O)cc1)NC(=O)[C@H](CCCCN)NC(=O)[C@H](Cc1ccccc1)NC(=O)[C@H](CCCNC(=N)N)NC(=O)[C@H](CO)NC(=O)[C@H](Cc1ccc(O)cc1)NC(=O)[C@H](CCCNC(=N)N)NC(=O)[C@H](Cc1c[nH]c2ccccc12)NC(=O)[C@H](Cc1c[nH]cn1)NC(=O)[C@H](Cc1ccc(O)cc1)NC(=O)[C@H](CCC(N)=O)NC(=O)[C@@H](NC(=O)[C@@H](N)CO)[C@@H](C)CC)C(=O)N[C@@H](Cc1c[nH]c2ccccc12)C(=O)N[C@H](C(=O)N[C@@H](Cc1ccc(O)cc1)C(=O)N[C@@H](Cc1ccc(O)cc1)C(=O)N[C@@H](CO)C(=O)N[C@@H](Cc1c[nH]cn1)C(=O)N[C@H](C(=O)O)C(C)C)C(C)C [CD40L M1_82s] (H-SIQYHWRYSRFKYYFQLIWVYYSHV-OH; N-terminus and C-terminus assumed)

- EC50 ([2]; unmodified (non-PEGylated) monomeric base peptide; read-out: EC50nmodified) CD40L/CD40-Fc/BAF617): 120 nM
Compound: CC[C@H](C)[C@H](NC(=O)[C@@H](NC(=O)[C@H](CCCCN)NC(=O)[C@@H](NC(=O)[C@H](Cc1ccc(O)cc1)NC(=O)[C@H](CC(C)C)NC(=O)[C@@H](N)CC(C)C)C(C)C)C(C)C)C(=O)N[C@@H](CS)C(=O)N[C@@H](Cc1ccccc1)C(=O)N[C@@H](Cc1ccccc1)C(=O)N[C@@H](CS)C(=O)N[C@@H](CCSC)C(=O)N[C@@H](CC(C)C)C(=O)N[C@H](C(=O)N[C@@H](CCC(N)=O)C(=O)N[C@@H](Cc1ccc(O)cc1)C(=O)N[C@@H](CC(N)=O)C(=O)N[C@@H](CC(N)=O)C(=O)N[C@@H](Cc1ccccc1)C(=O)N[C@@H](CCC(N)=O)C(=O)N[C@H](C(=O)N[C@@H](Cc1ccc(O)cc1)C(=O)N[C@@H](CCCCN)C(=O)O)[C@@H](C)O)C(C)C [CD40L M2_159] (H-LLYVKVICFFCMLVQYNNFQTYK-OH; N-terminus and C-terminus assumed)
